Ends that are not written are not given here. Peptide text beside a SMILES is read from it.
How the values were obtained:
[1] = target: T1, CRF2R (Homo sapiens, UniProt Q13324); assay: CRF2R agonist activation (EC50 / Emax), called comparative CRF binding; assay type: cell-based; conditions: read-out: CRF2R Emax
T1 sequence (Q13324 1-411): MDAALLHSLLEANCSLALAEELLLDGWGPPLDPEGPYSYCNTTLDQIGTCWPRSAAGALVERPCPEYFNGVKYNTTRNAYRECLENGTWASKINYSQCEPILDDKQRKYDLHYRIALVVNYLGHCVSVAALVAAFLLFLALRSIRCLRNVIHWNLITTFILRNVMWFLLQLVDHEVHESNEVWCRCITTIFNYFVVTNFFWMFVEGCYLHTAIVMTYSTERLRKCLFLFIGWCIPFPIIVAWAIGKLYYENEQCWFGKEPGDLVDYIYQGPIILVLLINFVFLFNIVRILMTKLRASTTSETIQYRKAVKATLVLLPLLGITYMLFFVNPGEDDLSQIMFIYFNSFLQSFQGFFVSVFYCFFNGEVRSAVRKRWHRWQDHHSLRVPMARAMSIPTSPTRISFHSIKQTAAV
How it was run: (§1)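 Cells expressing human CRF1R or CRF2R are exposed to peptide or vehicle control, and receptor activation is read as cAMP induction, measured in cell lysates or via a CRE-linked reporter gene.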

[2] = target: T2, CRF1R (Homo sapiens, UniProt P34998); assay: CRF1R agonist activation (EC50 / Emax), called comparative CRF binding; assay type: cell-based; conditions: read-out: CRF1R Emax
T2 sequence (P34998 24-415): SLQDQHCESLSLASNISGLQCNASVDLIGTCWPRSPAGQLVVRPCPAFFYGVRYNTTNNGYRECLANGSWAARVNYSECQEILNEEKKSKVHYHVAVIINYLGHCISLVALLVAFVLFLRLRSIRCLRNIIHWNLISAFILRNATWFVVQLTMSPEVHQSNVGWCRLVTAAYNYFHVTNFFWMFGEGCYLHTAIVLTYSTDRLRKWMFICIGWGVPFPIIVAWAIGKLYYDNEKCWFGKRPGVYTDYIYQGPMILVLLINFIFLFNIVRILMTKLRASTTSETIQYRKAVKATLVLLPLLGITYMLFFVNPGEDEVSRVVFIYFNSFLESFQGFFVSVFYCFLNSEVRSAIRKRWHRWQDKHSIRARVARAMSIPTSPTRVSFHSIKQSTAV
How it was run: as §1

Compound	Emax [1] [%]	Emax [2] [%]
SEEPPISLDLTFHLLREVLEMARAEQLAQQAHTNARILARV-NH2 [compound 161]	88	77
CC[C@H](C)[C@H](N)C(=O)N[C@H](C(=O)N[C@@H](CC(C)C)C(=O)N[C@@H](CO)C(=O)N[C@@H](CC(C)C)C(=O)N[C@@H](CC(=O)O)C(=O)N[C@H](C(=O)N1CCC[C@H]1C(=O)N[C@H](C(=O)NCC(=O)N[C@@H](CC(C)C)C(=O)N[C@@H](CC(C)C)C(=O)N[C@@H](CCC(N)=O)C(=O)N[C@@H](CCCCN)C(=O)N[C@H](C(=O)N[C@H](C(=O)N[C@@H](CCC(=O)O)C(=O)N[C@H](C(=O)N[C@@H](CCC(=O)O)C(=O)N[C@@H](CCCCN)C(=O)N[C@@H](CCC(N)=O)C(=O)N[C@@H](CCC(=O)O)C(=O)N[C@@H](CCCCN)C(=O)N[C@@H](CCC(=O)O)C(=O)N[C@@H](CCCCN)C(=O)N[C@@H](CCC(N)=O)C(=O)N[C@@H](CCC(N)=O)C(=O)N[C@@H](C)C(=O)N[C@H](C(=O)N[C@H](C(=O)N[C@@H](CC(N)=O)C(=O)N[C@@H](C)C(=O)N[C@@H](CCCNC(=N)N)C(=O)N[C@H](C(=O)N[C@@H](CC(C)C)C(=O)N[C@@H](C)C(=O)N[C@@H](CCCNC(=N)N)C(=O)N[C@H](C(N)=O)C(C)C)[C@@H](C)CC)[C@@H](C)O)[C@@H](C)O)[C@@H](C)CC)[C@@H](C)CC)C(C)C)[C@@H](C)CC)C(C)C)C(C)C [compound 300] (H-IVLSLDVPIGLLQKVIEIEKQEKEKQQATTNARILARV-NH2; N-terminus assumed)	100	7.95
SQEPPISLDLTFGLLREVLEMTKADQLAQQAHSNRKLLDIA-NH2 [compound 88]	12.6	11.2
CC[C@H](C)[C@H](NC(=O)[C@H](CCCNC(=N)N)NC(=O)[C@H](C)NC(=O)[C@H](CC(N)=O)NC(=O)[C@H](CCC(N)=O)NC(=O)[C@H](CCC(=O)O)NC(=O)[C@H](C)NC(=O)[C@H](CCCNC(=N)N)NC(=O)[C@H](CCC(=O)O)NC(=O)[C@H](CCCNC(=N)N)NC(=O)[C@H](CCC(N)=O)NC(=O)[C@H](CO)NC(=O)[C@H](CCC(N)=O)NC(=O)[C@@H](NC(=O)[C@H](CCCNC(=N)N)NC(=O)[C@H](C)NC(=O)[C@H](CC(C)C)NC(=O)[C@H](CCC(=O)O)NC(=O)[C@H](CC(C)C)NC(=O)[C@H](CC(C)C)NC(=O)[C@@H](NC(=O)[C@H](CCCNC(=N)N)NC(=O)[C@H](CC(C)C)NC(=O)[C@H](CC(C)C)NC(=O)[C@H](Cc1ccccc1)NC(=O)[C@H](CC(C)C)NC(=O)[C@@H]1CCCN1C(=O)[C@H](CC(C)C)NC(=O)[C@H](CC(=O)O)NC(=O)[C@@H](NC(=O)[C@H](CO)NC(=O)[C@H](CC(C)C)NC(=O)[C@H](CO)NC(=O)[C@@H]1CCCN1C(=O)[C@H](CC(N)=O)NC(=O)[C@@H](N)CC(=O)O)[C@@H](C)CC)[C@@H](C)O)[C@@H](C)O)C(=O)N[C@@H](Cc1ccccc1)C(=O)N[C@@H](C)C(=O)N[C@@H](CCCNC(=N)N)C(=O)N[C@H](C(N)=O)C(C)C [compound 329] (H-DNPSLSIDLPLFLLRTLLELARTQSQRERAEQNARIFARV-NH2; N-terminus assumed)	98.3	98.4

Reference: patent US6936585B2, “Corticotropin releasing factor 2 receptor agonists” (priority 2002, dated 2005)
